Results taken from patent publication US20040063681A1, “Methods for using gold (III) complexes as anti-tumor and anti-HIV agents” (priority 2002, published 2004).
Values joined by “and” are separate entries in the source; they are usually repeats but may differ in a detail not shown here. Equal values may be shown once.

What was measured:
[1] = tested on: human cancer cell lines (HL-60, HepG2, HeLa, KB-3-1, KB-V1, SUNE1, CNE1); type: cell-based; conditions: MTT, all studied cell lines; read-out: IC50 values over the panel of cancer cell lines
Description: Human promyelocytic leukemia (HL-60), human hepatocellular carcinoma (HepG2), Human cervix epitheloid carcinoma cells (HeLa) and human oral epidermoid carcinoma cells (KB-3-1), were obtained from American Type Culture Collection (ATCC) (Rockville, Md.). The multi-drug-resistant variant KB-V1 cell line was obtained by stepwise selections for vinblastine resistance as described by Shen et al., J. Biol. Chem. 261:7762-7770 (1986)], and was generously provided by Dr Michael Gottesman (NIH, Bethesda, Md.). Human nasopharyngeal carcinoma cells (SUNE1 and its cisplatin resistance variant, CNE1) were derived from poorly differentiated NPC in Chinese patients as described by Gu et al., Chin. J. Cancer 2:270-272 (1983), and were generously provided by Dr S. W. Tsao (The University of Hong Kong, Hong Kong, PRC). Cell culture flasks and 96 well microtitre plates were from Nalge Nunc hit. Culture medium, other medium constituents and phosphate buffered saline (PBS) were obtained from Gibco BRL (Rockville, Md.). […]
The anti-cancer activities of the gold(III) porphyrin complexes were evaluated toward some established human cancer cell lines: promyelocytic leukemia (HL-60), hepatocellular carcinoma (HepG2), cervix epitheloid carcinoma (HeLa), epidermoid carcinoma (KB-3-1) and its multi-drug resistant variant (KB-V1), nasopharyngeal carcinoma (SUNE1) and its cisplatin-resistant variant (CNE1). […]

calf thymus DNA = assay: Viscosity evaluation of DNA; conditions: (η/ηo)^1/3 vs binding ratio r
Description: Viscosity evaluation. The binding interaction of the gold(III) porphyrins can be further investigated by examining the change of DNA viscosity upon binding of the metalloporphyrin. If the metalloporphyrin binds to DNA by intercalation, this would cause chain elongation, unwinding and stiffening of the DNA helix as a consequence of untwisting of the base pairs and helical backbone needed to accommodate the intercalator.
For comparison, the viscosity profiles for ethidium bromide (intercalator) and Hoechst 33342 (minor groove binder) are also shown is FIG. 10.

[2] = Electrochemical measurements (cyclic voltammetry); type: physicochemical
Method: Electrochemical measurements. Electrochemical measurements were performed at room temperature after purging with nitrogen using 0.1 M tetrabutylammonium hexafluorophosphate (TBAP)/acetonitrile as supporting electrolyte. The working electrode was a glassy carbon (Atomergic Chemetal V25, geometric area of 0.35 cm^2) electrode and the counter electrode was platinum gauze. A nonaqueous Ag/AgNO3 (0.1 M in acetonitrile) reference electrode was contained in a separate compartment connected to the test solution via fine sintered glass disks. The ferrocenium/ferrocene couple was used as the internal standard. The redox properties of the gold(III) porphyrin complexes in non-aqueous medium (CH2Cl2 with 0.1 M nBu4NPF6) have been studied by cyclic voltammetry with glassy carbon and platinum as the working and counter electrodes, respectively. […] The effect of para-substitution on the electrochemical potentials has been examined by Hammett correlation analysis.

[3] = tested on: Human Hepatocellular Carcinoma (HepG2); assay: MTT cytotoxicity, HepG2; type: cell-based; conditions: growth inhibition
Description: (§1) Human promyelocytic leukemia (HL-60), human hepatocellular carcinoma (HepG2), Human cervix epitheloid carcinoma cells (HeLa) and human oral epidermoid carcinoma cells (KB-3-1), were obtained from American Type Culture Collection (ATCC) (Rockville, Md.). The multi-drug-resistant variant KB-V1 cell line was obtained by stepwise selections for vinblastine resistance as described by Shen et al., J. Biol. Chem. 261:7762-7770 (1986)], and was generously provided by Dr Michael Gottesman (NIH, Bethesda, Md.). Human nasopharyngeal carcinoma cells (SUNE1 and its cisplatin resistance variant, CNE1) were derived from poorly differentiated NPC in Chinese patients as described by Gu et al., Chin. J. Cancer 2:270-272 (1983), and were generously provided by Dr S. W. Tsao (The University of Hong Kong, Hong Kong, PRC). Cell culture flasks and 96 well microtitre plates were from Nalge Nunc hit. Culture medium, other medium constituents and phosphate buffered saline (PBS) were obtained from Gibco BRL (Rockville, Md.). Cell Proliferation Kit I (MTT) was purchased from Roche (Mannheim, Germany).
The anti-cancer activities of the gold(III) porphyrin complexes were evaluated toward some established human cancer cell lines: promyelocytic leukemia (HL-60), hepatocellular carcinoma (HepG2), cervix epitheloid carcinoma (HeLa), epidermoid carcinoma (KB-3-1) and its multi-drug resistant variant (KB-V1), nasopharyngeal carcinoma (SUNE1) and its cisplatin-resistant variant (CNE1). The experiments were carried out by following the MTT procedure (see Mosmann et al., J. Immunol. Methods 65:55-63 (1983). The IC50 values of the gold(III) porphyrin complexes together with that of cisplatin, and KAuCl4 are provided in Table 4a; and the IC50 values of the gold(III) Schiff-base and bis(pyridyl)carboxamide complexes are shown in Table 4b. The cytotoxicity profiles of some selected gold(III) porphyrin complexes toward SUNE1 and its cisplatin-resistant variant CNE1 are also shown in FIG. 7.

[4] = tested on: Human Oral Epidermoid Carcinoma (KB-3-1); assay: MTT cytotoxicity, KB-3-1; type: cell-based; conditions: MTT, growth inhibition
Description: Human promyelocytic leukemia (HL-60), human hepatocellular carcinoma (HepG2), Human cervix epitheloid carcinoma cells (HeLa) and human oral epidermoid carcinoma cells (KB-3-1), were obtained from American Type Culture Collection (ATCC) (Rockville, Md.). […] Cell culture flasks and 96 well microtitre plates were from Nalge Nunc hit. Culture medium, other medium constituents and phosphate buffered saline (PBS) were obtained from Gibco BRL (Rockville, Md.). Cell Proliferation Kit I (MTT) was purchased from Roche (Mannheim, Germany).

[5] = tested on: Human Oral Epidermoid Carcinoma (multi-drug resistance, KB-V-1); assay: MTT cytotoxicity, KB-V-1; type: cell-based; conditions: MTT, growth inhibition, multi-drug resistant
Description: as §1
The anti-cancer activities of the gold(III) porphyrin complexes were evaluated toward some established human cancer cell lines: promyelocytic leukemia (HL-60), hepatocellular carcinoma (HepG2), cervix epitheloid carcinoma (HeLa), epidermoid carcinoma (KB-3-1) and its multi-drug resistant variant (KB-V1), nasopharyngeal carcinoma (SUNE1) and its cisplatin-resistant variant (CNE1).

[6] = target: T1, HIV-1 reverse transcriptase (Human immunodeficiency virus type 1 group M subtype B, UniProt P04585); assay: HIV-1 reverse transcriptase activity, ELISA method; type: biochemical; conditions: ELISA; mean ± SE of at least three determinations; read-out: IC50 HIV-1 RT
T1 construct: treatment of HIV-1 RT in Lysis buffer (2 ng, 128.7 μL) with Complex 1j
Method: HIV-1 reverse transcriptase activities were measured by an ELISA method (see Eberle et al, J. Virol. Methods, 40:347-356 (1992) performed by incubating the enzyme with digoxigenin-labeled deoxyuridin-5′-triphosphate (dUTP) and the biotin-labeled analogue during reverse transcription starting from the template/primer hybrid poly(A)•oligo(dT)15. After reverse transcription, the newly synthesized DNA was immobilized onto streptavidin-coated ELISA wells, and the incorporation of the dioxigenin-labeled dUTP was assayed by chemiluminescence method. For example, treatment of HIV-1 RT in Lysis buffer (2 ng, 128.7 μL) with Complex 1j (1.3 μL of […] stock solution) dissolved in TBS at 37° C. produced significant RT activity inhibition (˜95%) after 30 min incubation.

plasmid DNA (pDR2) = assay: Restriction endonuclease (ApaI) fragmentation assay
Description: Binding of the metalloporphyrin onto a duplex DNA such as plasmid DNA (pDR2) is expected to occupy the binding site of the restriction enzyme ApaI, thereby inhibiting the enzymatic DNA digestion. See Ikeda et al., J. Am. Chem. Soc. 104:296-297 (1982).
After ApaI digestion, (lane B), three bands corresponding to 6.6, 4.4 and 2.0 kbp were observed.

[7] = cyclic voltammetry, 0.1 M nBu4NPF6, glassy carbon, vs Cp2Fe^+/0

In the case of `C1=Cc2nc1c(-c1ccccc1)c1ccc([n-]1)c(-c1ccccc1)c1nc(c(-c3ccccc3)c3ccc([n-]3)c2-c2ccccc2)C=C1.[Au+3].[Cl-]` [Complex 1a], the IC50 [1] is reported as 100 to 800 nM, the “change in viscosity of the DNA” value (calf thymus DNA) is reported as “no appreciable change in viscosity of the DNA” and the “Couple I (first reduction couple)” value [2, 7] is reported as −1.00 V. For the same compound, the “Couple II (second reduction couple)” value [2, 7] was −1.48 V, the “ΔE1o (E^0Y − E^0H), couple I” value ([2]; relative to Y=H (Complex 1a)) was 0 V and the “ΔE2^0 (E^0Y − E^0H), couple II” value ([2]; relative to Y=H (Complex 1a)) was 0 V. The IC50 [3] was 340 nM, the IC50 [4] was 200 nM and the IC50 [5] was 120 nM. The IC50 [6] was 28400 nM and 28000 nM, the “effect on ApaI digestion of pDR2” value (plasmid DNA (pDR2); Complex:DNA = 0.1:1 (lane C)) was “partial DNA digestion was observed” and the “effect on ApaI digestion of pDR2” value (plasmid DNA (pDR2); Complex:DNA bp = 1:1 (lane D)) was “inhibition of the DNA digestion was observed”.
